Legend:
[1] = osteoarthritis, epilepsy, myocardial infarction (in combination with a platelet inhibitor); cited from earlier work
interleukin-1β release = conditions: after LPS treatment; cited from earlier work
[2] = test system: inflammasome-mediated release of IL1beta; test: Nigericin-induced IL-1β release in PMA-differentiated, LPS-stimulated THP-1 cells (ELISA); format: cell-based, human; conditions: PMA 50 nM 24 h, LPS 1 μg/mL 6 h
Procedure: THP-1 cells come from a child with leukemia. It is a pre-monocytic line, characterized by a suspension of (non-adherent) cells with a well rounded shape. The cells used come from ATCC. The cells are cultured at a density of 0.4.106 /mL in T75 flasks kept upright in RPMI 1640 Medium, Glutamax, Supplement HEPES (ThermoFischer Scientific, #72400027) supplemented with 10% FCS (previously decomplemented and flitre) and 1% PS antibiotics. The cultures are maintained at 37° C. under a humid atmosphere with 5% CO2.
The differentiation of THP-1 is induced by adding phorbol 12-myritate 13-acetate (PMA, 5 mg/mL stock in DMSO, InvivoGen, # tlrl-pma) to the medium. More precisely, the latter mimics the structure of diacylglycerol (DAG) which is an activator of protein Kinase C (PKC). Thus, it allows the stimulation of the expression of transcription factors including NF-kB, which are involved in macrophage differentiation (Park E. K. et al., 2007; Daigneault M. et al., 2010). After treatment with PMA the cells acquire a macrophages-like phenotype, that is, they become adherent and no longer divide. In practice, the cells are seeded on 24-well plates at a density of 300.103 cells/well, the PMA is then added for 24 hours at a concentration of 50 nM. The next day, the cells are washed gently with PBS and fresh complete medium is added, the cells are then left for 3 days. […]

[3] = cited from earlier work
Caspase-9 = molecular target: T1, Caspase-9 (Homo sapiens, UniProt P55211); conditions: active form of Belnacasan; cited from earlier work
T1 sequence (P55211 1-315 limits assumed): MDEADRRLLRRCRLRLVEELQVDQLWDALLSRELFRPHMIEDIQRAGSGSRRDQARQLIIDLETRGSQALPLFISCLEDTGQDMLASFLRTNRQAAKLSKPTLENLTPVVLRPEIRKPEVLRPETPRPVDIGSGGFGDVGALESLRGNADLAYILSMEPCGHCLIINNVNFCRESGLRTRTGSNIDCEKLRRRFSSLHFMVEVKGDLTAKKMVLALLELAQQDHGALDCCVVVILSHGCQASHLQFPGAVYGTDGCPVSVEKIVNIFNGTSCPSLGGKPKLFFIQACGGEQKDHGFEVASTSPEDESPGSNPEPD
T1 sequence (P55211 331-416 limits assumed): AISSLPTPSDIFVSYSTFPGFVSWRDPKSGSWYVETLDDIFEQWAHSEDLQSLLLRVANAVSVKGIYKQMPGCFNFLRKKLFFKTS

Caspase-4 = molecular target: T2, Caspase-4 (Homo sapiens, UniProt P49662); conditions: active form of Belnacasan; cited from earlier work
T2 sequence (P49662 81-270 limits assumed): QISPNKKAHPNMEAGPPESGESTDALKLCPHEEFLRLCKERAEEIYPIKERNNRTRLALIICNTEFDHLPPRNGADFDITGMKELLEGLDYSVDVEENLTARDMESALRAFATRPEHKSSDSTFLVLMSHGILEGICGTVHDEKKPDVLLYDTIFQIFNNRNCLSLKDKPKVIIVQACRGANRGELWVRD
T2 sequence (P49662 290-377 limits assumed): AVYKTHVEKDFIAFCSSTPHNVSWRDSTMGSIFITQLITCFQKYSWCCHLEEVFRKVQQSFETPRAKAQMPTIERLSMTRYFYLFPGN

Caspase-3 = molecular target: T3, Caspase-3 (Homo sapiens, UniProt P42574); conditions: active form of Belnacasan; cited from earlier work
T3 sequence (P42574 29-175 limits assumed): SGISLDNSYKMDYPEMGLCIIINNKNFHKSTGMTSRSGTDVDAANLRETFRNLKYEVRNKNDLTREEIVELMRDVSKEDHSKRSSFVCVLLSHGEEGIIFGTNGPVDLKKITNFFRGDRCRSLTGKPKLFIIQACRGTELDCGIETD
T3 sequence (P42574 176-277 limits assumed): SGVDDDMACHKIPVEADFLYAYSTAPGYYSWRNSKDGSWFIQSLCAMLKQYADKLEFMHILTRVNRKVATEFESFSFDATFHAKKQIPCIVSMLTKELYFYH

Caspase-7 = molecular target: T4, Caspase-7 (Homo sapiens, UniProt P55210); conditions: active form of Belnacasan; cited from earlier work
T4 sequence (P55210 24-198 limits assumed): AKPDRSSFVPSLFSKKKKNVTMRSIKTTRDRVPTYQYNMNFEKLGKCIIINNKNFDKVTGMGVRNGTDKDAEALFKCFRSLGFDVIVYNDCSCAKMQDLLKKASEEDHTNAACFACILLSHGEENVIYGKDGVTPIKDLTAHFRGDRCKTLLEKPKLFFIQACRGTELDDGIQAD
T4 sequence (P55210 207-303 limits assumed): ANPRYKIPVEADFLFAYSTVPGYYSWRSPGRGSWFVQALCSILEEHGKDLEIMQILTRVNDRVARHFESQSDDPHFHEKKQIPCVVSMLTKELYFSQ

CCO[C@@H]1OC(=O)C[C@@H]1NC(=O)[C@@H]1CCCN1C(=O)[C@@H](NC(=O)c1ccc(N)c(Cl)c1)C(C)(C)C [Belnacasan, (S)-1-((S)-2-(4-Amino-3-chlorobenzamido)-3,3-dimethylbutanoyl)-N-((2R,3S)-2-ethoxy-5-oxotetrahydrofuran-3-yl)pyrrolidine-2-carboxamide]
efficacy in animal models [1]: significant efficacy | efficacy in cellular models of interleukin-1β release (interleukin-1β release): effective | reduction of the release of the cytokine IL-1β into the medium ([2]; 25 μM, after 120 minutes of Nigericin treatment): 90% | release of IL-1beta induced by nigericin ([2]; Nigericin 5 μM for 60 and 120 minutes, n=3): prevents the release | tolerability in humans ([3]; oral): well tolerated | decrease in the frequency of epileptic episodes (secondary endpoint) ([3]; phase 2b, 60 patients with epilepsy (48 VX-765), no statistical superiority vs placebo): 15.6% | primary endpoint of safety and tolerance ([3]; phase 2b, 60 patients with epilepsy): reached

CC(C)(C)[C@H](NC(=O)c1ccc(N)c(Cl)c1)C(=O)N1CCC[C@H]1C(=O)N[C@H](C=O)CC(=O)O [VRT-043198]
Ki (Caspase-9): 1 µM | Ki (Caspase-4): < 0.0006 µM | Ki (Caspase-3): 16 µM | Ki (Caspase-7): 21.5 µM
